Marks after values point to notes of the source that are not given here. Strand notation (5' to 3'): a small letter for the sugar, then the base; units joined by * are phosphorothioate-linked, units joined directly phosphodiester-linked; [ ] holds rarer units or linkages, { } end groups; capitals alone tell only the bases. [ms] = mesyl phosphoramidate linkage; e = 2'-O-(2-methoxyethyl) (MOE); k = constrained ethyl (cEt); [5mC] = 5-methylcytosine; d = 2'-deoxy (DNA)
Legend:
Assay type in all cases: in vivo
human APOE RNA [1] = experiment: Activity in APOE 1549 knock-in mice, single ICV bolus, 2 weeks (Example 7); settings: single ICV bolus of 300 μg, two weeks post treatment, Table 16
Description: Modified oligonucleotides described above were tested in APOE knock-in mice.
APOE knock-in mice (model 41549) were obtained from Taconic Biosciences. APOE knock-in mice were divided into groups of 2 mice each. Each mouse received a single intracerebroventricular (ICV) bolus of 300 μg of modified oligonucleotide. A group of 4 mice received a single ICV bolus with PBS as a negative control.
Two weeks post treatment, mice were sacrificed and RNA was extracted from cortical brain tissue and spinal cord for quantitative real-time RT-PCR analysis of RNA expression of APOE using primer probe set RTS3073 (described herein above). APOE RNA levels were normalized to mouse Ppia. Mouse Ppia was amplified using primer probe set m_cyclo24 (forward sequence TCGCCGCTTGCTGCA, designated herein as SEQ ID NO: 16; reverse sequence ATCGGCCGTGATGTCGA, designated herein as SEQ ID NO: 17; probe sequence […], designated herein as SEQ ID NO: 18). Results are presented as percent human APOE RNA relative to the amount of human APOE RNA in PBS treated animals, (% control). Each experiment is identified in separate tables below.

human APOE RNA [2] = experiment: Activity in APOE C57BL/6NTac-Apoeem7250 knock-in mice, single ICV bolus, 8 weeks (Example 11); settings: single ICV bolus 300 μg, 8 weeks post treatment, normalized to mouse Ppia
Outline: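 Cortical and spinal cord human APOE RNA quantified by RT-qPCR 8 weeks after a single 300 μg ICV dose in knock-in mice, Ppia-normalized. Values are percent of levels in PBS-treated animals.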

human APOE RNA [3] = experiment: Duration of action study in APOE C57BL/6NTac-Apoeem7250 knock-in mice (Example 18); settings: 300 μg ICV
Description: Modified oligonucleotides described above were tested in the APOE C57BL/6NTac-Apoeem7250 knock-in model (described above).
Each mouse received a single intracerebroventricular (ICV) bolus of 300 μg of modified oligonucleotide. A group of 4-6 mice received a single ICV bolus with PBS as a negative control.
Mice were sacrificed at various timepoints as indicated in the table below and RNA was extracted from cortical brain tissue and spinal cord for quantitative real-time RT-PCR analysis of RNA expression of APOE using primer probe set RTS3073 (described herein above). APOE RNA levels were normalized to mouse Ppia. Mouse Ppia was amplified using primer probe set m_cyclo24 (described herein above). Results are presented as percent human APOE RNA relative to the amount of human APOE RNA in PBS treated animals, (% control). Each experiment is identified in separate tables below.

1601942: 6-10-4 MOE gapmer CCGTGTTCCATTTATGAGCT, linkages sooooossssssssssoss (antisense e[5mC]*e[5mC]eGeTeGeTdT*d[5mC]*d[5mC]*dA*dT*dT*dT*dA*dT*dG*eAeG*e[5mC]*eT) [compound 1601942]
APOE RNA (% control) Cortex (human APOE RNA [1]): 84 % control
APOE RNA (% control) Spinal Cord (human APOE RNA [1]): 91 % control

1601957: 6-10-4 MOE gapmer TCCTCATTTTAAAGTTCTCC, linkages sooooossssssssssoss (antisense eT*e[5mC]e[5mC]eTe[5mC]eAdT*dT*dT*dT*dA*dA*dA*dG*dT*dT*e[5mC]eT*e[5mC]*e[5mC]) [compound 1601957]
APOE RNA (% control) Cortex (human APOE RNA [1]): 101 % control
APOE RNA (% control) Spinal Cord (human APOE RNA [1]): 90 % control

1809637 (kA*e[5mC]eTeT*eG*kG*dT*dG[ms]dA[ms]dA[ms]dT*d[5mC]*dT*dT*dT*dA[ms]kT*kT*kA*kA; antisense) [Compound 1809637]
APOE RNA (% control) Cortex (human APOE RNA [2]): 20 % control
APOE RNA (% control) Spinal Cord (human APOE RNA [2]): 9 % control
APOE RNA (% control) Cortex (human APOE RNA [3]; 56 days post-dose): 26‡ % control
APOE RNA (% control) Cortex (human APOE RNA [3]; 112 days post-dose): 42 % control
APOE RNA (% control) Cortex (human APOE RNA [3]; 224 days post-dose): 58‡ % control
APOE RNA (% control) Spinal Cord (human APOE RNA [3]; 56 days post-dose): 19 % control
APOE RNA (% control) Spinal Cord (human APOE RNA [3]; 112 days post-dose): 17 % control
APOE RNA (% control) Spinal Cord (human APOE RNA [3]; 224 days post-dose): 36‡ % control

1810064: mixed MOE/cEt gapmer CTTGGTGAATCTTTATTAAAC, sugar eeeeekddddddddddeeeee, linkages ssoooszzzssssszsooss (e[5mC]*eT*eTeGeGkT*dG[ms]dA[ms]dA[ms]dT*d[5mC]*dT*dT*dT*dA[ms]dT*eTeAeA*eA*e[5mC]) [compound 1810064]
APOE RNA (% control) Cortex (human APOE RNA [2]): 23 % control
APOE RNA (% control) Spinal Cord (human APOE RNA [2]): 15 % control
APOE RNA (% control) Cortex (human APOE RNA [3]; 28 days post-dose): 40 % control
APOE RNA (% control) Cortex (human APOE RNA [3]; 112 days post-dose): 62 % control
APOE RNA (% control) Cortex (human APOE RNA [3]; 140 days post-dose): 63 % control
APOE RNA (% control) Spinal Cord (human APOE RNA [3]; 28 days post-dose): 22 % control
APOE RNA (% control) Spinal Cord (human APOE RNA [3]; 112 days post-dose): 31 % control
APOE RNA (% control) Spinal Cord (human APOE RNA [3]; 140 days post-dose): 48 % control

1601956: 6-10-4 MOE gapmer AAGTTCTCCAATCGACGGCT, linkages sooooossssssssssoss (antisense eA*eAeGeTeTe[5mC]dT*d[5mC]*d[5mC]*dA*dA*dT*d[5mC]*dG*dA*d[5mC]*eGeG*e[5mC]*eT) [compound 1601956]
APOE RNA (% control) Cortex (human APOE RNA [1]): 104 % control
APOE RNA (% control) Spinal Cord (human APOE RNA [1]): 107 % control

1601949: 6-10-4 MOE gapmer CTGCAATGCATTAGAAACCT, linkages sooooossssssssssoss (antisense e[5mC]*eTeGe[5mC]eAeAdT*dG*d[5mC]*dA*dT*dT*dA*dG*dA*dA*eAe[5mC]*e[5mC]*eT) [compound 1601949]
APOE RNA (% control) Cortex (human APOE RNA [1]): 77 % control
APOE RNA (% control) Spinal Cord (human APOE RNA [1]): 92 % control

1601944: 6-10-4 MOE gapmer CTGGTCTTCTCTTATCTCCC, linkages sooooossssssssssoss (antisense e[5mC]*eTeGeGeTe[5mC]dT*dT*d[5mC]*dT*d[5mC]*dT*dT*dA*dT*d[5mC]*eTe[5mC]*e[5mC]*e[5mC]) [compound 1601944]
APOE RNA (% control) Cortex (human APOE RNA [1]): 109 % control
APOE RNA (% control) Spinal Cord (human APOE RNA [1]): 95 % control

1601955: 6-10-4 MOE gapmer GCTAATTCAGTCCTCATTTT, linkages sooooossssssssssoss (antisense eG*e[5mC]eTeAeAeTdT*d[5mC]*dA*dG*dT*d[5mC]*d[5mC]*dT*d[5mC]*dA*eTeT*eT*eT) [compound 1601955]
APOE RNA (% control) Cortex (human APOE RNA [1]): 98 % control
APOE RNA (% control) Spinal Cord (human APOE RNA [1]): 111 % control

1601958: 6-10-4 MOE gapmer CTTCACATTCTAAGCTCCAA, linkages sooooossssssssssoss (antisense e[5mC]*eTeTe[5mC]eAe[5mC]dA*dT*dT*d[5mC]*dT*dA*dA*dG*d[5mC]*dT*e[5mC]e[5mC]*eA*eA) [compound 1601958]
APOE RNA (% control) Cortex (human APOE RNA [1]): 109 % control
APOE RNA (% control) Spinal Cord (human APOE RNA [1]): 102 % control

1601959: 6-10-4 MOE gapmer CCGTGTCGCTGCCCCTGGCT, linkages sooooossssssssssoss (antisense e[5mC]*e[5mC]eGeTeGeTd[5mC]*dG*d[5mC]*dT*dG*d[5mC]*d[5mC]*d[5mC]*d[5mC]*dT*eGeG*e[5mC]*eT) [compound 1601959]
APOE RNA (% control) Cortex (human APOE RNA [1]): 107 % control
APOE RNA (% control) Spinal Cord (human APOE RNA [1]): 85 % control

1601948: 6-10-4 MOE gapmer GTTCAAATTCCATCCCCCCA, linkages sooooossssssssssoss (antisense eG*eTeTe[5mC]eAeAdA*dT*dT*d[5mC]*d[5mC]*dA*dT*d[5mC]*d[5mC]*d[5mC]*e[5mC]e[5mC]*e[5mC]*eA) [compound 1601948]
APOE RNA (% control) Cortex (human APOE RNA [1]): 112 % control
APOE RNA (% control) Spinal Cord (human APOE RNA [1]): 105 % control

1809636 (kA*e[5mC]eTeT*eG*kG*dT*dG[ms]dA[ms]dA[ms]dT*d[5mC]*dT*dT*dT*dA[ms]kT*kT*eA*kA; antisense) [Compound 1809636]
APOE RNA (% control) Cortex (human APOE RNA [2]): 16 % control
APOE RNA (% control) Spinal Cord (human APOE RNA [2]): 11 % control
APOE RNA (% control) Cortex (human APOE RNA [3]; 56 days post-dose): 32 % control
APOE RNA (% control) Cortex (human APOE RNA [3]; 112 days post-dose): 33 % control
APOE RNA (% control) Cortex (human APOE RNA [3]; 224 days post-dose): 65‡ % control
APOE RNA (% control) Spinal Cord (human APOE RNA [3]; 56 days post-dose): 14 % control
APOE RNA (% control) Spinal Cord (human APOE RNA [3]; 112 days post-dose): 13 % control
APOE RNA (% control) Spinal Cord (human APOE RNA [3]; 224 days post-dose): 41‡ % control

1601943: 6-10-4 MOE gapmer GTCCTCATTTTAAAGTTCTC, linkages sooooossssssssssoss (antisense eG*eTe[5mC]e[5mC]eTe[5mC]dA*dT*dT*dT*dT*dA*dA*dA*dG*dT*eTe[5mC]*eT*e[5mC]) [compound 1601943]
APOE RNA (% control) Cortex (human APOE RNA [1]): 115 % control
APOE RNA (% control) Spinal Cord (human APOE RNA [1]): 113 % control
